Common to all, as to experiment: inhibition of tumour cell growth, NCI panel, 48 h
Test [1] relates to MOLT-4 leukemia.
Test [2] has as its system SK-OV-3 ovarian.
Test [3] concerns EKVX NSCLC.
For test [4], the system named is HCC-2998 colon.
For test [5], the system named is SR leukemia.
For test [6], the system named is MDA-MB-231 breast.
For test [7], the system named is NCI-H522 lung.
In test [8] the test system is UO-31 renal.
The test system of test [9] is NCI-H460 lung.
Test [10] has as its system SK-MEL-5 melanoma.

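Compound exposure: 48 hours, 5 concentrations, 96-well plates. GI50 = concentration required for 50% inhibition of growth. TGI: concentration producing complete growth inhibition.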 Bounds are passed on as bounds.

Consider `COc1cccc(/C=C2\COc3ccc(O)c(O)c3C2=O)c1OC`, for which the GI50 in test [1] is 1.83 µM; in test [2] it was 7.18 µM; in test [3], 4.29 µM; in [4], 1.99 µM; in [5], 1.51 µM; in test [6] it was 3.32 µM. The GI50 was 0.19 µM in [7], 1.1 µM in test [8], 2.34 µM in test [9] and 2.05 µM in test [10]. For the same compound, the TGI is greater than 100 µM in test [1]; 21 µM in [2]; 16.9 µM in [3]; 3.96 µM in test [4]; greater than 100 µM in test [5]; 13.4 µM in test [6]. In addition, the TGI is 0.473 µM in [7], 2.4 µM in test [8], 7.12 µM in test [9] and 4.3 µM in test [10].

As for `Nc1ncnc2occ(-c3ccc(NC(=O)Nc4cccc(C(F)(F)F)c4)cc3)c12`, the GI50 in [1] was 3.54 µM; in test [2], 4.91 µM; in test [3], 4.46 µM; in [4] it was 6.11 µM; in test [5], 0.957 µM; in test [6], 5.8 µM. For the same compound, the GI50 is 4.18 µM in test [7], 2.88 µM in [8], 3.46 µM in test [9] and 3.06 µM in [10]. Besides, the TGI in test [1] was found to be 15.5 µM; in [2] it was 17.9 µM; in test [3], 14.5 µM; in [4], 14.3 µM; in test [5], 8.59 µM; in [6], 16.4 µM. Moreover, the TGI in test [7] turned out to be 8.92 µM; in [8] it was 11 µM; in [9] it was 9.3 µM; in [10], 6.21 µM.

The values are drawn from PubChem BioAssay (NCI).
